Experimental data published in paper PMC5762728 (Scientific Reports, 2018).
Each block holds one compound with its values, some of them ahead of it.

Tests used:
[1] = biological target: T1, C-domain of bovine ACE (C-ACE) (Bos taurus, UniProt P12820); test: Inhibition of C-ACE hydrolysis of Aβ peptides by lisinopril; type: biochemical; settings: lisinopril 10 μM; MALDI-TOF MS
T1 sequence (P12820 643-1222 limits assumed): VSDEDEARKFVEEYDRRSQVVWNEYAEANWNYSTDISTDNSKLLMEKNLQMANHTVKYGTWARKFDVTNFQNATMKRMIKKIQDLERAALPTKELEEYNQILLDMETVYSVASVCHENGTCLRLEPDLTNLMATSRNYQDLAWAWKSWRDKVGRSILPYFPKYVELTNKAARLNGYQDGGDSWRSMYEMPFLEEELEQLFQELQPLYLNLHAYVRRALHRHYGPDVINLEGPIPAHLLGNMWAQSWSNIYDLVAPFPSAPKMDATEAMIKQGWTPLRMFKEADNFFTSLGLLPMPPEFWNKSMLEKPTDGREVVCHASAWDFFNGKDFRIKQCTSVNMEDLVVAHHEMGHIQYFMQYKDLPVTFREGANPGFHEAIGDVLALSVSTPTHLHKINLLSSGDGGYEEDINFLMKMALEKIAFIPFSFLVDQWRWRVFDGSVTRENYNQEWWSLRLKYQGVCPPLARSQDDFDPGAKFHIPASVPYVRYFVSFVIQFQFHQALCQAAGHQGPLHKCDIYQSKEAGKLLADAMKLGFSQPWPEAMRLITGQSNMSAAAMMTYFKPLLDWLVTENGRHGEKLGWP

[2] = tested on: C-domain of ACE (C-ACE); test: C-ACE with lisinopril, ratAβ substrate; settings: bovine, 37 °C, up to 60 min
[3] = tested on: N-domain of ACE (N-ACE); test: N-ACE with lisinopril, ratAβ substrate; settings: bovine, 37 °C, up to 60 min
[4] = tested on: N-ACE (N-domain of bovine ACE); settings: 37 °C, up to 60 min
[5] = biological target: T1, C-domain of bovine ACE (C-ACE); test: Hydrolysis of Aβ metal-binding-domain peptides by C-ACE, products identified/quantified by MALDI-TOF MS; settings: same experimental conditions as N-ACE, 37 °C
[6] = biological target: T2, N-domain of bovine ACE (N-ACE) (Bos taurus, UniProt P12820); test: Hydrolysis of Aβ metal-binding-domain peptides by N-ACE, products identified/quantified by MALDI-TOF MS
T2 sequence (P12820 40-624 limits assumed): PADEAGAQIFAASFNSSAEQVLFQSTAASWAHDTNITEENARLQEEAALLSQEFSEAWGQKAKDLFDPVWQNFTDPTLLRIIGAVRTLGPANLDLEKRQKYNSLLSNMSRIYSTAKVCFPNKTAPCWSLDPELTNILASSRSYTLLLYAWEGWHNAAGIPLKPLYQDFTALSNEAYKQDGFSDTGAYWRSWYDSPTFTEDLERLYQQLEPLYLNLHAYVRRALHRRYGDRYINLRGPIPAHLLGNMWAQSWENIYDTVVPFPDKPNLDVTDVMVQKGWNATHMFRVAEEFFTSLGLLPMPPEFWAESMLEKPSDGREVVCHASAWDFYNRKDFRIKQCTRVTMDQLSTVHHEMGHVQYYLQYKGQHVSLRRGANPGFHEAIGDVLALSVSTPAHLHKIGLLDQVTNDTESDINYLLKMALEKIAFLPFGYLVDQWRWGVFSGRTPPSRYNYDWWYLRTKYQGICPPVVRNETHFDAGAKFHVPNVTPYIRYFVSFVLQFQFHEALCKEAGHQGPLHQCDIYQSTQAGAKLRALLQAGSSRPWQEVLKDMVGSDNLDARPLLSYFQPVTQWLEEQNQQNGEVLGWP

[7] = tested on: N-domain of ACE; settings: cited from earlier work
[8] = tested on: N-domain of ACE; settings: cited from earlier work; remark: listed apart in the source
[9] = tested on: N-domain of ACE (N-ACE); test: N-ACE with lisinopril; settings: bovine, 37 °C

Compound: NCCCC[C@H](N[C@@H](CCc1ccccc1)C(=O)O)C(=O)N1CCC[C@H]1C(=O)O [lisinopril]
Effect of lisinopril on C-ACE hydrolysis of Aβ(1-16) [1]: fully prevented the formation of these products of hydrolysis

Compound: Pyr-HWSYGLRPG-[Amide]
fragment found [7]: N-terminal tripeptide

Compound: Pyr-HWSYGLRPG-[Amide] [luliberin, regulatory peptide, natural substrate of ACE]
Endoproteolytic cleavage by the N-domain of ACE [8]: cleaves an N-terminal tripeptide

Compound: [CH3CO]-Asp-Ala-Glu-Phe-Arg^5-His-Asp- Ser-Gly-Tyr^10-Glu-Val-His-His-Gln^15-Lys-[NH2]
not cleaved [9]: complete inhibition of hydrolysis

The next lines start with results.

not cleaved [2]: complete inhibition of hydrolysis
not cleaved [3]: complete inhibition of hydrolysis
cleaved bond [4]: Arg13-His14, 10 min
Compound: Ac-DAEFGHDSGFEVRHQK-NH2
not cleaved [4]: absence of endopeptidase activity toward the G5-H6 peptide bond

Peptide bond hydrolysed by N-ACE ([6]; bicarbonate buffer pH 7.8, 37 °C, incubation 40 min (Aβ(1-16)), 130 min (amidated Aβ peptides), 60 min (ratAβ peptide)): Arg13-His14
Bond cleaved, N-ACE (backbone positions) ([6]; same digestion as products observed, N-ACE, 37 °C): 13–14
Compound: Ac-DAEFGHDSGFEVRHQK-NH2 [[CH3CO]-Asp-Ala-Glu-Phe-Gly^5-His-Asp- Ser-Gly- Phe^10-Glu-Val-Arg-His-Gln^15-Lys-[NH2]]
Peptide bond(s) hydrolysed by C-ACE [5]: Arg13-His14, His14-Gln15, and Gln15- Lys16
